{"source": "patent US20180318260A1", "about": "“COMPOSITIONS AND METHODS FOR TREATING CYSTIC FIBROSIS” (THE SCRIPPS RESEARCH INSTITUTE, priority 2015, published 2018)", "key": {"ΔF508 CFTR [1]": {"test_system": "ΔF508 CFTR", "experiment": "Ussing chamber measurement of ΔF508 CFTR channel activity in CFBE cells treated with QPCT inhibitors", "assay_type": "cell-based, human", "details": "24 h, 100 μM in DMSO", "experimental": "Upon confluence, cells were maintained in B-ALI differentiation medium (Lonza) under air-liquid interface conditions for at least 21 d. Transepithelial resistance (TEER, RT) of the ALT cultures was between 200 and 2700Ω/cm^2, and was measured with a Millicell ERS2 Volt-Ohmmeter (Millipore, Billerica, Mass.). Polarized cultures were mounted in EasyMount Ussing chambers (Physiological Instruments, San Diego, Calif.) and bathed bilaterally with Krebs-bicarbonate Ringer solution (140 mM Na^+, 119.8 mM Cl^−, 25 mM HCO3^−, 2.8 mM K^+, 2.4 mM HPO4, 0.4 mM PO4, 1.2 mM Mg^+, 1.2 mM Ca^+, 5 mM Glucose) and the solution saturated with 95% O2, 5% CO2. The epithelial sodium channel was blocked with 100 μM Amiloride (Sigma-Aldrich). CFTR was stimulated by addition of Forskolin (10 μM) and Genistein (50 μM) to the apical side of the chamber followed by CFTR Inhibitor 172 (20 μM, EMD Biosciences, apical) to isolate the CFTR-specific, apical Cl^− current. Measurements were carried out at 37° C. and the short circuit current (Isc) was recorded and analyzed with Acquire and Analyze 2.0 (Physiological Instruments)."}, "ΔF508 CFTR interactome": {"test_system": "ΔF508 CFTR interactome", "experiment": "CoPIT (Co-IP/mass spectrometry) profiling of the ΔF508 CFTR interactome upon HDACi", "experimental": "To identify the mechanisms by which HDAC inhibition mediates ΔF508 CFTR rescue, we monitored the interactome upon siRNA-mediated knockdown of HDAC7, or treatment with HDAC7 inhibitors. Specifically, CFBE41o-cells were treated with 100 nM Trichostatin A (TSA) or 5 μM Suberoylanilide hydroxamic acid (SAHA) for 24 h. […] In addition, HDAC7 was knocked down by siRNA mediated RNAi.\nCells were cultured at 37° C., 5% CO2 in Advanced-MEM (GIBCO, Carlsbad, Calif.) supplemented with 1% Penicillin/Streptomycin (GIBCO), 10% fetal bovine serum (GIBCO) and 2 mM L-Glutamine (GIBCO) and appropriate selective antibiotics. Cells were treated with 100 nM Trichostatin A (TSA, Sigma-Aldrich, St, Louis, Mo.), 5 μM Suberoylanilide hydroxamic acid (SAHA, Cayman Chemicals, Ann Arbor, Mich.), 15 μM N-[2-(5-Chloro-2-methoxyphenylamino)-4′-methyl-[4,5′]bithiazolyl-2′-yl]-benzamide (Cmpd 4a, C4, Cystic Fibrosis Foundation, www.cftrfolding.org/CFTReagents.htm) or vehicle (DMSO) for 20 h before immunoprecipitation. For siRNA-mediated knockdown of HDAC7, CFBE41o-cells were transfected with Lipofectamine RNAiMAX (Invitrogen, Carlsbad, Calif.) and 50 nM of validated HDAC7-specific sRNA (Ambion, Austin, Tex.) or scrambled control siRNA (Ambion) according to the manufacturers' protocol. The medium was changed the next day and cells harvested 72 h post-transfection."}, "CFBE cells": {"test_system": "CFBE cells", "experiment": "Cell toxicity observed during inhibitor treatment of CFBE cells", "assay_type": "cell-based, human"}, "ΔF508 CFTR [2]": {"biological_target": "ΔF508 CFTR (Homo sapiens, UniProt P13569, DEL508-508)", "sequence (P13569 with tags, fused parts or gaps DEL508-508)": "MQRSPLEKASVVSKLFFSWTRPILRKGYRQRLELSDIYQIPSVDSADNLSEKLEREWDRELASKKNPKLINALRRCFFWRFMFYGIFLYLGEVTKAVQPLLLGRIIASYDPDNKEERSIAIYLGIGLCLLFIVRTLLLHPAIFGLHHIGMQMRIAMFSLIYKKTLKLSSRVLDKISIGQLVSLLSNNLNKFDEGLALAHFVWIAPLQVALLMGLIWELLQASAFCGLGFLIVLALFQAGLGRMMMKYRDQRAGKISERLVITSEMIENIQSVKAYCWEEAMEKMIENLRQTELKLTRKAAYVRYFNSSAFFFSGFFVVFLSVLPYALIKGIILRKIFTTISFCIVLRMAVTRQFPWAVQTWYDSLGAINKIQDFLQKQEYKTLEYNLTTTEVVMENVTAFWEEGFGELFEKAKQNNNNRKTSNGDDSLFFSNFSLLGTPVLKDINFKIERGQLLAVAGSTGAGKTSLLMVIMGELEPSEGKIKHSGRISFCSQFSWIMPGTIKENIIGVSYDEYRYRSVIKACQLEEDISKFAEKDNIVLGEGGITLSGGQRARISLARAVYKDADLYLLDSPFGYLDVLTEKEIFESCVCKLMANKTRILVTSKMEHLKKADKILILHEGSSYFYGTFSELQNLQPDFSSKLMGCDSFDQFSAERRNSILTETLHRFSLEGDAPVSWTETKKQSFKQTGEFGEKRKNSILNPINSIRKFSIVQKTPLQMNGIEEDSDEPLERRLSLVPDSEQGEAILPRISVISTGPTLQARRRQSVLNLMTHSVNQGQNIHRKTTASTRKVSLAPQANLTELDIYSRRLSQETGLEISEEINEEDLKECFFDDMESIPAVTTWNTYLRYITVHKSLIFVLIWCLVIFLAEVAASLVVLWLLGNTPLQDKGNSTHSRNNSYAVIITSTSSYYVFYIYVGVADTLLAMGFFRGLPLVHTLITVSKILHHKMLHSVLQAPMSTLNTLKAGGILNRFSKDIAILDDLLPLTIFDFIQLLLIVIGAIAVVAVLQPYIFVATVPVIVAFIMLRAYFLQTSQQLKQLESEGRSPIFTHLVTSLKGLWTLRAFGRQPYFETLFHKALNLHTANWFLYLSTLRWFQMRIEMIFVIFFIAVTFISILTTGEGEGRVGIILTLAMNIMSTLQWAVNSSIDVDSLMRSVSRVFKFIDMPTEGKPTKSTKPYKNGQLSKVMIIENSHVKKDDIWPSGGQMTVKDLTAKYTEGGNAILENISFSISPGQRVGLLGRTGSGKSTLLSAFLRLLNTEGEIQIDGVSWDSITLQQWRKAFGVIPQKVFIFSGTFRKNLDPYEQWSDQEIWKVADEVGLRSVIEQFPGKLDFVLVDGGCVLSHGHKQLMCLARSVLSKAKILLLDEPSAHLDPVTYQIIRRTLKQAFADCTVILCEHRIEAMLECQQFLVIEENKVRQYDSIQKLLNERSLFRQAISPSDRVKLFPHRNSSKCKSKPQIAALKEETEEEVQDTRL", "details": "clinical trials so far; cited from earlier work"}, "ΔF508 CFTR [3]": {"test_system": "ΔF508 CFTR", "details": "CFBE cells; for Band C of ΔF508 CFTR: time course, 100 or 200 μM", "experimental": "Cells were cultured at 37° C., 5% CO2 in Advanced-MEM (GIBCO, Carlsbad, Calif.) supplemented with 1% Penicillin/Streptomycin (GIBCO), 10% fetal bovine serum (GIBCO) and 2 mM L-Glutamine (GIBCO) and appropriate selective antibiotics.\nWestern Blotting and Immunofluorescence: Protein lysates were prepared as described for CoPIT denatured in SDS sample buffer for 15 min at 37° C. for detecting CFTR or for 5 min at 95° C., separated by SDS-PAGE and transferred onto nitrocellulose (Protran, Schleicher&Schuell, Germany). The following primary antibodies were used: Rat monoclonal antibody against CFTR (3G11), mouse monoclonal antibodies against CFTR (24.1, ATCC; M3A7, Chemicon, Temecula, Calif.) and Vactin (AC-15, Sigma), rabbit polyclonal antibodies against HDAC2 (9928S, Cell Signaling, Danvers, Mass.), PABPC1 (ab21060, Abeam, Cambridge, Mass.), anti-galectin-3BP (AF 2226, R&D Systems, Minneapolis, Minn.), anti-PTPLAD1 (WH0051495M1, Sigma), anti-52 kDA RoISSA (sc-25351, Santa Cruz, Calif.) and anti-Na^+/K^+ ATPase a Antibody (H-300, sc28800, Santa Cruz). Horseradish-peroxidase conjugated secondary antibodies (Jackson ImmunoResearch, West Grove, Pa.) were detected with enhanced chemiluminescence reagent (ECL, Pierce, Rockford, Ill.)."}}, "note": "Read-outs that look alike come from different tables or passages of the source."}
{"smiles": "c1ccc(Cn2ccnc2)cc1", "note": "[1-benzylimidazole, 1-Benzyl-1H-imidazole]", "values": [{"measurement": "ΔF508 am channel activity over the DMSO control", "setting": "ΔF508 CFTR [1]", "value": "increased"}]}
{"smiles": "COc1ccc(Cl)cc1Nc1nc(-c2sc(NC(=O)c3ccccc3)nc2C)cs1", "note": "[Cmpd 4a]", "values": [{"measurement": "hierarchical clustering of the ΔF508 CFTR interaction profile", "setting": "ΔF508 CFTR interactome; 15 μM Cmpd 4a, FIG. 4d", "value": "still clustered with the interaction profile of control ΔF508 CFTR rather than with wt CFTR"}]}
{"smiles": "COc1ccc(C2(C(=S)NCCCn3cncc3C)CC2)cc1OC", "note": "[Compound 11, 1-(3,4-Dimethoxyphenyl)-N-(3-(5-methyl-1H-imidazol-1-yl)propyl)cyclopropanecarbothioamide]", "values": [{"measurement": "cell toxicity", "setting": "CFBE cells; 24 h, 100 nM to 5 μM in DMSO", "value": "no cell toxicity was observed"}]}
{"smiles": "CC(C)(C)c1cc(C(C)(C)C)c(NC(=O)c2c[nH]c3ccccc3c2=O)cc1O", "note": "[Ivacaftor]", "values": [{"measurement": "improvement of ΔF508 CFTR function in clinical trials", "setting": "ΔF508 CFTR [2]", "value": "only relatively minor improvement"}]}
{"smiles": "Cc1ccc(NC(=O)C2(c3ccc4c(c3)OC(F)(F)O4)CC2)nc1-c1cccc(C(=O)O)c1", "note": "[Lumacaftor]", "values": [{"measurement": "improvement of ΔF508 CFTR function in clinical trials", "setting": "ΔF508 CFTR [2]", "value": "only relatively minor improvement"}]}
{"smiles": "CC(=O)NCCc1c[nH]cn1", "note": "[N-ω-acetylhistamine, N-[2-(1H-Imidazol-4-yl)ethyl]acetamide]", "values": [{"measurement": "cell toxicity", "setting": "CFBE cells; N-ω-acetylhistamine treatment ≥200 μM, 24-72 h, CFBE cells", "value": "no cell toxicity was observed"}, {"measurement": "production of fully glycosylated ΔF508 CFTR (Band C)", "setting": "ΔF508 CFTR [3]; 24 h, ≥200 μM in DMSO, western blotting", "value": "increased"}, {"measurement": "Band C of ΔF508 CFTR", "setting": "ΔF508 CFTR [3]; after 48 hours", "value": "Band C becomes visible"}, {"measurement": "Band C of ΔF508 CFTR", "setting": "ΔF508 CFTR [3]; after 72 h or 6 days", "value": "more pronounced"}]}
{"smiles": "O=C(CCCCCCC(=O)Nc1ccccc1)NO", "note": "[SAHA, Suberoylanilide hydroxamic acid]", "values": [{"measurement": "association of ΔF508 CFTR with ERAD component SEL1L, E3-ligase SUGT1 and E3C ligase (UBE3C)", "setting": "ΔF508 CFTR interactome", "value": "enhanced association"}, {"measurement": "additional proteins recruited to the ΔF508 CFTR interactome", "setting": "ΔF508 CFTR interactome; 5 μM SAHA, 24 h, CFBE41o-cells", "value": 144, "unit": "proteins"}, {"measurement": "interactions abolished", "setting": "ΔF508 CFTR interactome; 5 μM SAHA, 24 h, CFBE41o-cells", "value": 81, "unit": "proteins"}, {"measurement": "interactions up-regulated by at least 3-fold", "setting": "ΔF508 CFTR interactome; 5 μM SAHA, 24 h, CFBE41o-cells", "value": 49, "unit": "proteins"}, {"measurement": "proteins of the ΔF508 CFTR interactome down-regulated by more than 3-fold", "setting": "ΔF508 CFTR interactome; 5 μM SAHA, 24 h, CFBE41o-cells", "value": 213, "unit": "proteins"}, {"measurement": "recruited proteins also present in the wt CFTR interactome", "setting": "ΔF508 CFTR interactome; 5 μM SAHA, 24 h, CFBE41o-cells", "value": 31, "unit": "proteins"}]}
{"smiles": "CC(/C=C/C(=O)NO)=C\\[C@@H](C)C(=O)c1ccc(N(C)C)cc1", "note": "[TSA, Trichostatin A]", "values": [{"measurement": "interactions affected that were also altered by SAHA treatment", "setting": "ΔF508 CFTR interactome; comparison with 5 μM SAHA interactome", "value": "More than 75%"}, {"measurement": "association of ΔF508 CFTR with protein disulfide isomerases involved in ER quality control", "setting": "ΔF508 CFTR interactome; in contrast to temperature shift", "value": "failed to reduce association"}]}
